Laboratory results as given in patent publication US20080194585A1, “Fungicidal Pyrazine Derivatives” (priority 2005, published 2008).
Marks after values point to notes of the source that are not given here.

Tests used:
Plasmopara viticola = test: Test D: grape downy mildew, spray after inoculation of grape seedlings; format: in vivo
Description: Upon removal, disease ratings were made. […] A dash (-) indicates no test results.

[1] = test system: Puccinia recondita f. sp. tritici; test: Test K: wheat leaf rust, preventive spray on wheat seedlings
[2] = test system: Erysiphe graminis f. sp. tritici; test: Test L: wheat powdery mildew, preventive spray on wheat seedlings
Septoria nodorum = test: Test H: wheat glum blotch, preventive spray on wheat seedlings
Description: (the causal agent of wheat glum blotch) and incubated in a saturated atmosphere at 20° C. for 48 h, and then moved to a growth chamber at 22° C. for 5 days, after which disease ratings were made.

Botrytis cinerea = test: Test E: tomato botrytis, preventive spray on tomato seedlings
Phytophthora infestans = test: whole plant or invertebrate; format: in vivo
[3] = test system: Colletotrichum orbiculare; test: Test B: cucumber Colletotrichum anthracnose, preventive spray on cucumber seedlings; conditions: 100 = 100% disease control
Septoria tritici = test: Test J: wheat leaf blotch, preventive spray on wheat seedlings; format: in vivo; conditions: 40 ppm (marked *); 100 = 100% disease control, 0 = no control
Description: A dash (-) indicates no test results.

Rhizoctonia oryzae = test: Test G: turf brown patch, preventive spray on creeping bent grass seedlings; conditions: 100 = 100% disease control, 0 = no control
Description: (the causal agent of turf brown patch) and incubated in a saturated atmosphere at 27° C. for 24 h, and then moved to a growth chamber at 27° C. for 5 days, after which disease ratings were made.

Pythium aphanidermatum = test: Test A: bluegrass pythium blight, preventive spray on bluegrass seedlings; conditions: 40 ppm (marked *); 100 = 100% disease control, 0 = no control
fusarium graminearium = test: Test I: wheat head scab, preventive spray on wheat seedlings; conditions: 200 ppm; 100 = 100% disease control, 0 = no control relative to controls
Description: (the causal agent of wheat head scab) and incubated in a saturated atmosphere at 20° C. for 72 h, and then moved to a growth chamber at 22° C. for 5 days, after which disease ratings were made.

[4] = 40 ppm (marked *), 100 = 100% disease control, 0 = no control
[5] = 40 ppm (marked *), 0 = no control
[6] = 200 ppm, 100 = 100% disease control, 0 = no control relative to controls

SMILES	Test D disease control rating (Plasmopara viticola; [4])	Test K disease control rating [1, 4]	Test B disease control rating [3, 5]	Test L disease control rating [2, 4]	Test J disease control rating (Septoria tritici)	Test H disease control rating (Septoria nodorum; [4])	Test E disease control rating (Botrytis cinerea; [4])	Test F disease control rating (Phytophthora infestans; [4])	Test G disease control rating (Rhizoctonia oryzae; 40 ppm (marked *))	Test A disease control rating (Pythium aphanidermatum)	further results
CC(C)Cn1c(-c2ccc(C(F)(F)F)cc2)c(Cl)nc(-n2cccn2)c1=O [compound 36]											Test D disease control rating (Plasmopara viticola; 200 ppm): 0%; Test K disease control rating ([1]; 200 ppm): 0%; Test L disease control rating ([2]; 200 ppm): 0%; Test H disease control rating (Septoria nodorum; 200 ppm): 0%; Test E disease control rating (Botrytis cinerea; 200 ppm): 0%; Test F disease control rating (Phytophthora infestans; 200 ppm): 0%
COc1ccc(-c2c(Cl)nc(-n3cccn3)c(=O)n2CC(C)C)cc1 [compound 37]											Test D disease control rating (Plasmopara viticola; 200 ppm): 0%; Test K disease control rating ([1]; 200 ppm): 89%; Test L disease control rating ([2]; 200 ppm): 0%; Test H disease control rating (Septoria nodorum; 200 ppm): 100%; Test E disease control rating (Botrytis cinerea; 200 ppm): 100%; Test F disease control rating (Phytophthora infestans; 200 ppm): 0%
CC(C)Cn1c(-c2ccc(OC(F)(F)F)cc2)c(Cl)nc(-n2cccn2)c1=O [compound 38]											Test D disease control rating (Plasmopara viticola; 200 ppm): 0%; Test K disease control rating ([1]; 200 ppm): 0%; Test L disease control rating ([2]; 200 ppm): 0%; Test H disease control rating (Septoria nodorum; 200 ppm): 0%; Test E disease control rating (Botrytis cinerea; 200 ppm): 0%; Test F disease control rating (Phytophthora infestans; 200 ppm): 0%
O=c1c(-n2cccn2)nc(Cl)c(-c2c(F)cccc2F)n1Cc1ccccc1F [compound 336]	0* %	100* %	0* %	98* %	100* %	99* %	99* %	0* %	41* %	0* %	
Cc1ccn(-c2nc(Cl)c(-c3c(F)cc(F)cc3F)n(-c3ccccc3F)c2=O)n1 [compound 355]	0* %	99* %	99* %	57* %	100* %	100* %	99* %	0* %	66* %	0* %	
Cc1ccn(-c2nc(Cl)c(-c3c(F)cc(F)cc3F)n(-c3cccc(F)c3)c2=O)n1 [compound 356]	0* %	100* %	99* %	100* %	100* %	100* %	100* %	0* %	93* %	0* %	
Cc1ccn(-c2nc(Cl)c(-c3c(F)ccc(F)c3F)n(-c3ccccc3)c2=O)n1 [compound 358]	0* %	100* %	0* %	91* %	100* %	100* %	99* %		92* %	0* %	
O=c1c(-n2cccn2)nc(Cl)c(-c2c(F)cc(F)cc2F)n1-c1ccc(F)c(F)c1 [compound 365]	16* %	100* %	99* %	96* %	100* %	100* %	98* %	0* %	99* %	0* %	
Cc1ccn(-c2nc(Cl)c(-c3c(F)cc(F)cc3F)n(-c3ccc(F)c(F)c3)c2=O)n1 [compound 366]	0* %	100* %	99* %	93* %	96* %	100* %	99* %	0* %	89* %	0* %	
O=c1c(-n2cccn2)nc(Cl)c(-c2c(F)cc(F)cc2F)n1-c1cc(F)cc(F)c1 [compound 367]	0* %	100* %	100* %	99* %	99* %	100* %	99* %	0* %	99* %	0* %	
Cc1ccn(-c2nc(Cl)c(-c3c(F)cc(F)cc3F)n(-c3cc(F)cc(F)c3)c2=O)n1 [compound 368]	0* %	100* %	99* %	99* %	100* %	100* %	99* %	0* %	99* %	0* %	
O=c1c(-n2cccn2)nc(Cl)c(-c2c(F)cc(F)cc2F)n1-c1cccc(F)c1F [compound 369]	0* %	100* %	100* %	98* %	100* %	100* %	99* %	0* %	99* %	0* %	
Cc1ccn(-c2nc(Cl)c(-c3c(F)cc(F)cc3F)n(-c3cccc(F)c3F)c2=O)n1 [compound 370]	0* %	100* %	100* %	96* %	100* %	100* %	99* %	0* %	92* %	0* %	
O=c1c(-n2cccn2)nc(Cl)c(-c2c(F)cc(F)cc2F)n1-c1ccc(Cl)cc1 [compound 371]	0* %	100* %	99* %	98* %	100* %	100* %	99* %	0* %	99* %	0* %	
Cc1ccn(-c2nc(Cl)c(-c3c(F)cc(F)cc3F)n(-c3ccc(Cl)cc3)c2=O)n1 [compound 372]	0* %	100* %	100* %		100* %	100* %	99* %	0* %		0* %	Test L disease control rating ([2]; 200 ppm, 100 = 100% disease control, 0 = no control): 98%; Test G disease control rating (Rhizoctonia oryzae; 200 ppm): 82%
C#CCNC(=O)c1nc(Cl)c(-c2c(F)cc(F)cc2F)n(CC(C)CC)c1=O (centres unmarked) [compound 416]											Test K disease control rating [1, 6]: 100%; Test B disease control rating ([3]; 200 ppm, 0 = no control relative to controls): 99%; Test I disease control rating (fusarium graminearium): 0%; Test L disease control rating [2, 6]: 99%; Test H disease control rating (Septoria nodorum; [6]): 100%; Test E disease control rating (Botrytis cinerea; [6]): 99%
